Where a name gives a salt, the structure may show the parent alone.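 Protocol summary: plate cells (96-well), add compound at 5 concentrations, incubate 48 h, interpolate endpoints linearly. Here, GI50 denotes the concentration required for 50% inhibition of growth.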 Active and inactive are the calls of the source. No stated cut-off is given here; in the data, active = GI50 up to about 1.1 µM and inactive = higher.
Assays:
Assay in all cases: inhibition of tumour cell growth, NCI panel, 48 h
NCI-H226 = tested on: NCI-H226
UACC-257 = tested on: UACC-257
HOP-18 = tested on: HOP-18
786-0 = tested on: 786-0
SNB-19 = tested on: SNB-19
OVCAR-5 = tested on: OVCAR-5
EKVX = tested on: EKVX
OVCAR-8 = tested on: OVCAR-8
KM-20L2 = tested on: KM-20L2
M19-MEL = tested on: M19-MEL
UACC-62 = tested on: UACC-62
M14 = tested on: M14
SK-MEL-28 = tested on: SK-MEL-28
K562 = tested on: K562
COLO 205 = tested on: COLO 205
DMS-114 = tested on: DMS-114

Measured: GI50

CO[C@H]1CC[C@]2(C)C3=CC[C@@]4(C)C(CC[C@@H]4C(C)CC[C@@H](C)C(C)C)C(=CCC2C1)O3 (some centres not stated)
inactive: NCI-H226 > 16.5 µM | UACC-257 > 25 µM | HOP-18 > 25 µM | 786-0 > 25 µM | SNB-19 > 25 µM | OVCAR-5 > 25 µM | EKVX > 25 µM | OVCAR-8 > 25 µM | KM-20L2 > 25 µM | M19-MEL > 25 µM | UACC-62 > 25 µM | M14 > 25 µM | SK-MEL-28 > 25 µM | K562 > 25 µM | COLO 205 > 25 µM | DMS-114 > 25 µM

[O-][S+]1Cc2ccccc2CSS1 (configuration not stated)
inactive: NCI-H226 27.2 µM | UACC-257 14.5 µM | HOP-18 27.9 µM | 786-0 15.7 µM | SNB-19 35.5 µM | OVCAR-5 16.3 µM | EKVX 25.2 µM | OVCAR-8 14.5 µM | KM-20L2 16.9 µM | M19-MEL 20.2 µM | UACC-62 13 µM | M14 14 µM | SK-MEL-28 13.8 µM | K562 12.3 µM | COLO 205 14.2 µM | DMS-114 17.2 µM

CC(C)/C=C1\CCC(CN2CCCC2)C1=O (configuration not stated)
inactive: NCI-H226 20.9 µM | UACC-257 17.7 µM | HOP-18 7.73 µM | 786-0 2.01 µM | SNB-19 > 41.6 µM | OVCAR-5 20 µM | EKVX 20.8 µM | OVCAR-8 10.4 µM | KM-20L2 18.5 µM | M19-MEL 24.1 µM | UACC-62 20.6 µM | M14 10.9 µM | SK-MEL-28 17.5 µM | K562 2.69 µM | COLO 205 7.05 µM | DMS-114 12.9 µM

COC(=O)C1=CCS(=O)(=O)C1
inactive: NCI-H226 > 100 µM | UACC-257 > 100 µM | HOP-18 > 100 µM | 786-0 > 100 µM | SNB-19 > 100 µM | OVCAR-5 > 100 µM | EKVX > 100 µM | OVCAR-8 > 100 µM | KM-20L2 > 100 µM | M19-MEL > 100 µM | UACC-62 > 100 µM | M14 > 100 µM | SK-MEL-28 > 100 µM | K562 > 100 µM | COLO 205 > 100 µM | DMS-114 > 100 µM

N#CC(/C(=N/NC(N)=S)C(=O)Nc1cccc(Cl)c1)c1ccccc1 (configuration not stated)
inactive: NCI-H226 > 100 µM | UACC-257 > 100 µM | HOP-18 > 100 µM | 786-0 > 100 µM | SNB-19 > 100 µM | OVCAR-5 > 100 µM | EKVX > 100 µM | OVCAR-8 > 100 µM | KM-20L2 > 100 µM | M19-MEL > 100 µM | UACC-62 > 100 µM | M14 > 100 µM | SK-MEL-28 > 100 µM | K562 > 100 µM | COLO 205 > 100 µM | DMS-114 > 100 µM

Cc1nccc2c1[nH]c1cc(O)ccc12 [HARMOL HYDROCHLORIDE]
inactive: NCI-H226 96.6 µM | UACC-257 82.4 µM | HOP-18 38 µM | 786-0 55.2 µM | SNB-19 > 100 µM | OVCAR-5 68.2 µM | EKVX 68.2 µM | OVCAR-8 49.2 µM | KM-20L2 > 100 µM | M19-MEL > 100 µM | UACC-62 96.6 µM | M14 > 100 µM | SK-MEL-28 > 100 µM | K562 37.1 µM | COLO 205 > 100 µM | DMS-114 70.3 µM

CCOc1cn(C2OC(CO)C(O)C2O)c(=O)[nH]c1=O (configuration not stated)
inactive: NCI-H226 > 100 µM | UACC-257 > 100 µM | HOP-18 > 100 µM | 786-0 > 100 µM | SNB-19 > 100 µM | OVCAR-5 > 100 µM | EKVX > 100 µM | OVCAR-8 > 100 µM | KM-20L2 > 100 µM | M19-MEL > 100 µM | UACC-62 > 100 µM | M14 > 100 µM | SK-MEL-28 > 100 µM | K562 > 100 µM | COLO 205 95.5 µM | DMS-114 > 100 µM

Source: ChEMBL document CHEMBL1201862, “PubChem BioAssay data set” (2004)
